Measured values taken from patent publication US20230158151A1 (NURIX THERAPEUTICS, INC., priority 2021, published 2023).

Assay: Mouse PK Analysis (plasma LC/MS/MS, noncompartmental PK parameters)
Type: in vivo
Set-up: AUC(0-t): concentration or dose not given beside the values
Details: mouse; mice, oral administration, plasma
Method: Compounds 30 and 29 were administered to mice orally. After 6 hours or 24 hours, splenocytes cells were harvested. ITK was evaluated by Western blotting. Plasma concentrations were determined by LC/MS/MS. Plasma samples were protein precipitated by addition of 100 μl of acetonitrile containing 50 ng/ml of internal standard. The resulting mixture was vortexed and centrifuged at 4000 RPM for 5 minutes. An aliquot of the resultant supernatant (75 μl) was added to 75 μl of 0.1% formic acid in water to constitute the final sample for injection. Samples were injected on a Shimadzu Exion LC Binary Gradient AD Pump HLPC system connected to a Sciex QTRAP 6500+ mass spectrometer. Five μl of sample was injected onto a Waters Acquity UPLC BEH C18 column 130A (2.1×30 mm, […]) at 40° C. utilizing a flow rate of 700 μl/minute. Mobile Phase A was 0.1% formic acid in water and mobile phase B was 0.1% formic acid in acetonitrile. A linear gradient of 15-95% B over 1.0 minute was used. The mass spectrometer was operated in positive ion electrospray mode with multiple reaction monitoring for maximum sensitivity. Sciex Analyst software (version 1.6.3) was used for LC/MS/MS instrument control and acquisition. Compound concentration was determined against a standard curve of internal standard versus compound peak area ratio. Noncompartmental PK parameters were determined using Phoenix 32 software (version 8.2.0.4383) from Certara. Plasma concentrations from the LC/MS/MS analyses, dose, route of administration, and desired units were utilized for PK parameter calculations. […] FIG. 3C provides the concentration over time of compound 30 following in vivo oral administration in the 6 hour and 24 hour assays.
Cmax, Tmax and AUClast were all calculated using a WinNonLin Phoenix 64 v 8.2.0.4383. Using non-compartmental analysis, Tmax, Cmax and AUClast were determined as follows:
Tmax—Time of maximum observed concentration. Cmax—Maximum observed concentration, occurring at time Tmax, as defined above. AUClast—Area under the curve from the time of dosing to the time of the last measurable (positive) concentration (Tlast).

| AUC(0-t) [µM·h] | Cmax [nM] | Tmax [h] | SMILES |
| --- | --- | --- | --- |
| 150 | 11000 | 3.3 | CC1(C)CCc2c(-c3cc4ccc(C(=O)N5CCN(CC6CCN(c7ccc(C8CCC(=O)NC8=O)cc7)CC6)CC5)cc4[nH]3)n[nH]c2C1 (stereo not drawn) [Compound 38, 3-(4-(4-((4-(2-(6,6-dimethyl-4,5,6,7-tetrahydro-1H-indazol-3-yl)-1H-indole-6-carbonyl)piperazin-1-yl)methyl)piperidin-1-yl)phenyl)piperidine-2,6-dione] |
| 3.9 | 300 | 6 | CC1(C)CCc2c(-c3cc4ccc(C(=O)N5CCC(CN6CCC(c7ccc(C8CCC(=O)NC8=O)cc7)CC6)CC5)cc4[nH]3)n[nH]c2C1 (stereo not drawn) [Compound 39, 3-(4-(1-((1-(2-(6,6-dimethyl-4,5,6,7-tetrahydro-1H-indazol-3-yl)-1H-indole-6-carbonyl)piperidin-4-yl)methyl)piperidin-4-yl)phenyl)piperidine-2,6-dione] |
| 72 | 5400 | 2 | CC1(C)CCc2c(-c3cc4ccc(C(=O)N5CCC(CN6CCN(c7ccc(C8CCC(=O)NC8=O)cc7)CC6)CC5)cc4[nH]3)n[nH]c2C1 (stereo not drawn) [Compound 37, 3-(4-(4-((1-(2-(6,6-dimethyl-4,5,6,7-tetrahydro-1H-indazol-3-yl)-1H-indole-6-carbonyl)piperidin-4-yl)methyl)piperazin-1-yl)phenyl)piperidine-2,6-dione] |

Further lines, the compound ahead of its results:

| SMILES | AUC(0-t) [µM·h] | Cmax [nM] | Tmax [h] |
| --- | --- | --- | --- |
| CC1(C)CCc2c(-c3cc4ccc(N5CCC6(CCN(CC7CCN(c8ccc(C9CCC(=O)NC9=O)cn8)CC7)CC6)C5=O)cc4[nH]3)n[nH]c2C1 (stereo not drawn) [Compound 24, 3-(6-(4-((2-(2-(6,6-dimethyl-4,5,6,7-tetrahydro-1H-indazol-3-yl)-1H-indol-6-yl)-1-oxo-2,8-diazaspiro[4.5]decan-8-yl)methyl)piperidin-1-yl)pyridin-3-yl)piperidine-2,6-dione] | 1.43 | 610 | 6 |
| C[C@@H](C(=O)N(C)c1ccc2cc(-c3n[nH]c4c3CCC(C)(C)C4)[nH]c2c1)N1CCN(CC2CCN(c3ccc(N4CCC(=O)NC4=O)cn3)CC2)CC1 [Compound 31, (S)—N-(2-(6,6-dimethyl-4,5,6,7-tetrahydro-1H-indazol-3-yl)-1H-indol-6-yl)-2-(4-((1-(5-(2,4-dioxotetrahydropyrimidin-1(2H)-yl)pyridin-2-yl)piperidin-4-yl)methyl)piperazin-1-yl)-N-methylpropanamide] | 16.5 | 3080 | 2 |
| C[C@@H](C(=O)N(C)c1ccc2cc(-c3n[nH]c4c3C[C@@H]3C(F)(F)[C@]3(C)C4)[nH]c2c1)N1CCN(CC2CCN(c3ccc(N4CCC(=O)NC4=O)cn3)CC2)CC1 [Compound 29, (S)—N-(2-((4aS,5aR)-5,5-difluoro-5a-methyl-1,4,4a,5,5a,6-hexahydrocyclopropa[f]indazol-3-yl)-1H-indol-6-yl)-2-(4-((1-(5-(2,4-dioxotetrahydropyrimidin-1(2H)-yl)pyridin-2-yl)piperidin-4-yl)methyl)piperazin-1-yl)-N-methylpropanamide] | 1.98 | 694 | 3.3 |
| C[C@@]12Cc3[nH]nc(-c4cc5ccc(N6CCC7(CCN(CC8CCN(c9ccc(C%10CCC(=O)NC%10=O)cn9)CC8)CC7)C6=O)cc5[nH]4)c3C[C@@H]1C2(F)F (stereo partly drawn) [Compound 28, 3-(6-(4-((2-(2-((4aS,5aR)-5,5-difluoro-5a-methyl-1,4,4a,5,5a,6-hexahydrocyclopropa[f]indazol-3-yl)-1H-indol-6-yl)-1-oxo-2,8-diazaspiro[4.5]decan-8-yl)methyl)piperidin-1-yl)pyridin-3-yl)piperidine-2,6-dione] | 1.56 | 379 | 6 |
| CN(C(=O)CCC1CCN(c2ccc(C3CCC(=O)NC3=O)cn2)CC1)c1ccc2cc(-c3n[nH]c4c3C[C@@H]3C(F)(F)[C@]3(C)C4)[nH]c2c1 (stereo partly drawn) [Compound 4, N-(2-((4aS,5aR)-5,5-difluoro-5a-methyl-1,4,4a,5,5a,6-hexahydrocyclopropa[f]indazol-3-yl)-1H-indol-6-yl)-3-(1-(5-(2,6-dioxopiperidin-3-yl)pyridin-2-yl)piperidin-4-yl)-N-methylpropanamide] | 7.07 | 2430 | 1 |
| CC1(C)CCc2c(-c3cc4ccc(C(=O)N5CCN(CC6CCN(c7ccc(C8CCC(=O)NC8=O)cn7)CC6)CC5)cc4[nH]3)n[nH]c2C1 (stereo not drawn) [Compound 26, 3-(6-(4-((4-(2-(6,6-dimethyl-4,5,6,7-tetrahydro-1H-indazol-3-yl)-1H-indole-6-carbonyl)piperazin-1-yl)methyl)piperidin-1-yl)pyridin-3-yl)piperidine-2,6-dione] | 36.5 | 7110 | 6 |
| C[C@@H](C(=O)N(C)c1ccc2cc(-c3n[nH]c4c3CCC(C)(C)C4)[nH]c2c1)N1CCN(CC2CCN(c3ccc(C4CCC(=O)NC4=O)cn3)CC2)CC1 (stereo partly drawn) [Compound 32, (2S)—N-(2-(6,6-dimethyl-4,5,6,7-tetrahydro-1H-indazol-3-yl)-1H-indol-6-yl)-2-(4-((1-(5-(2,6-dioxopiperidin-3-yl)pyridin-2-yl)piperidin-4-yl)methyl)piperazin-1-yl)-N-methylpropanamide] | 22.7 | 1620 | 6 |
| CC1(C)CCc2c(-c3cc4ccc(C(=O)N5CCC(CN6CCN(c7ccc(C8CCC(=O)NC8=O)nc7)CC6)CC5)cc4[nH]3)n[nH]c2C1 (stereo not drawn) [Compound 35, 3-(5-(4-((1-(2-(6,6-dimethyl-4,5,6,7-tetrahydro-1H-indazol-3-yl)-1H-indole-6-carbonyl)piperidin-4-yl)methyl)piperazin-1-yl)pyridin-2-yl)piperidine-2,6-dione] | 12 | 2000 | 2 |
